How the values were obtained:
[1] = tested on: bicistronic HCV replicon (replicon RNA, GenBank Accession No. AJ242654); experiment: HCV Replicon Assay; type: cell-based; conditions: Hepatitis C virus, 72 h, read-out: Replicon IC50

SMILES	IC50 [1] [nM]	melting point [°C]
CCCn1c(-c2ccc(S(=O)(=O)NC(CF)CF)cn2)c(C#N)c2ccc(OC(F)F)cc21 [compound 45, 6-[3-cyano-6-(difluoromethoxy)-1-propyl-1H-indol-2-yl]-N-(1,3-difluoropropan-2-yl)pyridine-3-sulfonamide]	< 500	156 to 158
C[C@H](NS(=O)(=O)c1cnc(-c2c(C#N)c3cc(C#N)ccc3n2C2CCCC2)nc1)C1CC1 [compound 367, N-[(1S)-1-cyclopropylethyl]-2-(3,5-dicyano-1-cyclopentyl-1H-indol-2-yl)pyrimidine-5-sulfonamide]	500 to 2000	218 to 223
C[C@H](NS(=O)(=O)c1ccc(-c2c(C#N)c3ccc(OC(F)F)cc3n2-c2ncccn2)nc1)C(F)(F)F [compound 512, 6-[3-cyano-6-(difluoromethoxy)-1-(pyrimidin-2-yl)-1H-indol-2-yl]-N-[(2S)-1,1,1-trifluoropropan-2-yl]pyridine-3-sulfonamide]	< 500	186 to 189
Cc1c(F)cc2c(C#N)c(-c3ccc(S(=O)(=O)N[C@H](C)C(F)(F)F)cn3)n(C3CCC3)c2c1F [compound 666, 6-(3-cyano-1-cyclobutyl-5,7-difluoro-6-methyl-1H-indol-2-yl)-N-[(2R)-1,1,1-trifluoropropan-2-yl]pyridine-3-sulfonamide]	< 500	185 to 190
Cc1ccc2c(c1)c(C#N)c(-c1ncc(S(=O)(=O)NC(C)C)cn1)n2C1CCCC1 [compound 159, 2-(3-cyano-1-cyclopentyl-5-methyl-1H-indol-2-yl)-N-(propan-2-yl)pyrimidine-5-sulfonamide]	< 500	193 to 198
N#Cc1c(-c2ncc(S(=O)(=O)NC(CF)CF)cn2)n(-c2ccccn2)c2cc(Cl)ccc12 [compound 450, 2-[6-chloro-3-cyano-1-(pyridin-2-yl)-1H-indol-2-yl]-N-(1,3-difluoropropan-2-yl)pyrimidine-5-sulfonamide]	< 500	234 to 235
Cc1cc2c(cc1F)c(C#N)c(-c1ccc(S(=O)(=O)N[C@@H](C)C(F)(F)F)cn1)n2-c1ccccn1 [compound 541, 6-[3-cyano-5-fluoro-6-methyl-1-(pyridin-2-yl)-1H-indol-2-yl]-N-[(2S)-1,1,1-trifluoropropan-2-yl]pyridine-3-sulfonamide]	< 500	160 to 164
CC(C)NS(=O)(=O)c1cnc(-c2c(C#N)c3ccc(C4CCC4)cc3n2C2CCC2)nc1 [compound 265, 2-(3-cyano-1,6-dicyclobutyl-1H-indol-2-yl)-N-(propan-2-yl)pyrimidine-5-sulfonamide]	500 to 2000	192 to 194
Cc1cc(F)c2c(C#N)c(-c3ccc(S(=O)(=O)N[C@@H](C)C(F)(F)F)cn3)n(C3CCCC3)c2c1 [compound 625, 6-(3-cyano-1-cyclopentyl-4-fluoro-6-methyl-1H-indol-2-yl)-N-[(2S)-1,1,1-trifluoropropan-2-yl]pyridine-3-sulfonamide]	< 500	207 to 211
CCCn1c(-c2ncc(S(=O)(=O)N[C@@H](C)C(F)(F)F)cn2)c(C#N)c2ccc(OC(F)F)cc21 [compound 400, 2-[3-cyano-6-(difluoromethoxy)-1-propyl-1H-indol-2-yl]-N-[(2S)-1,1,1-trifluoropropan-2-yl]pyrimidine-5-sulfonamide]	< 500	207 to 208
CC(C)S(=O)(=O)Nc1ccc(-c2c(C#N)c3ccc(C4CC4)cc3n2C2CCC2)cn1 [compound 289, N-[5-(3-cyano-1-cyclobutyl-6-cyclopropyl-1H-indol-2-yl)pyridin-2-yl]propane-2-sulfonamide]	500 to 2000	226 to 228
N#Cc1c(-c2ccc(S(=O)(=O)NC(CF)CF)cn2)n(-c2ncccn2)c2cc(OC(F)F)ccc12 [compound 635, 6-[3-cyano-6-(difluoromethoxy)-1-(pyrimidin-2-yl)-1H-indol-2-yl]-N-(1,3-difluoropropan-2-yl)pyridine-3-sulfonamide]	< 500	173 to 176
Cc1cc2c(C#N)c(-c3ccc(S(=O)(=O)N[C@@H](C)C(F)(F)F)cn3)n(-c3ncccn3)c2cc1F [compound 901, 6-[3-cyano-6-fluoro-5-methyl-1-(pyrimidin-2-yl)-1H-indol-2-yl]-N-[(2S)-1,1,1-trifluoropropan-2-yl]pyridine-3-sulfonamide]	< 500	125 to 130
CCc1cc2c(cc1F)c(C(N)=O)c(-c1ccc(S(=O)(=O)N[C@@H](C)C(F)(F)F)cn1)n2-c1ccnc(C)n1 [compound 982, 6-ethyl-5-fluoro-1-(2-methylpyrimidin-4-yl)-2-(5-{[(2S)-1,1,1-trifluoropropan-2-yl]sulfamoyl}pyridin-2-yl)-1H-indole-3-carboxamide]	2000 to 5000	115 to 120
Cc1ccc2c(c1)c(C#N)c(-c1ccc(S(=O)(=O)N[C@@H](C)C3CC3)cn1)n2C1CCCCC1 [compound 606, 6-(3-cyano-1-cyclohexyl-5-methyl-1H-indol-2-yl)-N-[(1S)-1-cyclopropylethyl]pyridine-3-sulfonamide]	< 500	169 to 174
CC(C)NS(=O)(=O)c1cnc(-c2c(C#N)c3ccc(F)cc3n2CC2CC2)nc1 [compound 139, 2-[3-cyano-1-(cyclopropylmethyl)-6-fluoro-1H-indol-2-yl]-N-(propan-2-yl)pyrimidine-5-sulfonamide]	500 to 2000	218 to 219
N#Cc1c(-c2ncc(S(=O)(=O)NC(CF)CF)cn2)n(CC2CC2)c2ccc(F)cc12 [compound 302, 2-[3-cyano-1-(cyclopropylmethyl)-5-fluoro-1H-indol-2-yl]-N-(1,3-difluoropropan-2-yl)pyrimidine-5-sulfonamide]	< 500	216 to 221
Cc1cc2c(cc1F)c(C(N)=O)c(-c1ccc(S(=O)(=O)N[C@H](C)C(F)(F)F)cn1)n2C1CCCC1 [compound 699, 1-cyclopentyl-5-fluoro-6-methyl-2-(5-{[(2R)-1,1,1-trifluoropropan-2-yl]sulfamoyl}pyridin-2-yl)-1H-indole-3-carboxamide]	< 500	243 to 245
CCc1cc2c(cc1F)c(C(=O)O)c(-c1ncc(NS(=O)(=O)C(C)(C)C)cn1)n2C1CCCCC1 [compound 1028, 2-{5-[(tert-butylsulfonyl)amino]pyrimidin-2-yl}-1-cyclohexyl-6-ethyl-5-fluoro-1H-indole-3-carboxylic acid]	2000 to 5000	236 to 237
C[C@@H](NS(=O)(=O)c1ccc(-c2c(C#N)c3ccc(C4CCC4)cc3n2C2CCCC2)nc1)C(F)(F)F [compound 343, 6-(3-cyano-6-cyclobutyl-1-cyclopentyl-1H-indol-2-yl)-N-[(2R)-1,1,1-trifluoropropan-2-yl]pyridine-3-sulfonamide]	2000 to 5000	176 to 178
C[C@H](NS(=O)(=O)c1cnc(-c2c(C#N)c3ccc(CC(F)F)cc3n2C2CCC2)nc1)C1CC1 [compound 592, 2-[3-cyano-1-cyclobutyl-6-(2,2-difluoroethyl)-1H-indol-2-yl]-N-[(1S)-1-cyclopropylethyl]pyrimidine-5-sulfonamide]	< 500	168 to 175
CC(C)NS(=O)(=O)c1cnc(-c2c(C#N)c3cc(F)ccc3n2CC2CC2)nc1 [compound 303, 2-[3-cyano-1-(cyclopropylmethyl)-5-fluoro-1H-indol-2-yl]-N-(propan-2-yl)pyrimidine-5-sulfonamide]	< 500	215 to 220
Cc1cc2c(cc1F)c(C#N)c(-c1ccc(S(=O)(=O)N[C@@H](C)C(F)(F)F)cn1)n2-c1cc(F)ccn1 [compound 926, 6-[3-cyano-5-fluoro-1-(4-fluoropyridin-2-yl)-6-methyl-1H-indol-2-yl]-N-[(2S)-1,1,1-trifluoropropan-2-yl]pyridine-3-sulfonamide]	< 500	229 to 233
Cc1cc2c(cc1Cl)c(C#N)c(-c1ccc(S(=O)(=O)N[C@@H](C)C(F)(F)F)cn1)n2C1CCC1 [compound 446, 6-(5-chloro-3-cyano-1-cyclobutyl-6-methyl-1H-indol-2-yl)-N-[(2S)-1,1,1-trifluoropropan-2-yl]pyridine-3-sulfonamide]	< 500	209 to 210
CC[C@H](NS(=O)(=O)c1ccc(-c2c(C#N)c3cc(F)c(C)cc3n2C2CCC2)nc1)C(F)(F)F [compound 826, 6-(3-cyano-1-cyclobutyl-5-fluoro-6-methyl-1H-indol-2-yl)-N-[(2S)-1,1,1-trifluorobutan-2-yl]pyridine-3-sulfonamide]	< 500	212 to 217
Cc1cc2c(cc1F)c(C#N)c(-c1ccc(S(=O)(=O)N[C@@H](C)C(F)(F)F)cn1)n2-c1ccsc1Cl [compound 1057, 6-[1-(2-chlorothiophen-3-yl)-3-cyano-5-fluoro-6-methyl-1H-indol-2-yl]-N-[(2S)-1,1,1-trifluoropropan-2-yl]pyridine-3-sulfonamide]	< 500	226.7 to 231.8
NC(=O)c1c(-c2ccc(S(N)(=O)=O)cn2)n(C2CCC2)c2cc(OC(F)F)ccc12 [compound 568, 1-cyclobutyl-6-(difluoromethoxy)-2-(5-sulfamoylpyridin-2-yl)-1H-indole-3-carboxamide]	2000 to 5000	230 to 231
CNC(=O)c1c(-c2ccc(S(=O)(=O)NC(C)(C)C)cn2)n(C2CCC2)c2cc(C)c(F)cc12 [compound 795, 2-[5-(tert-butylsulfamoyl)pyridin-2-yl]-1-cyclobutyl-5-fluoro-N,6-dimethyl-1H-indole-3-carboxamide]	< 500	215 to 218
Cc1c(F)cc2c(c1F)c(C#N)c(-c1ccc(S(=O)(=O)N[C@@H](C)C(F)(F)F)cn1)n2C1CCC1 [compound 555, 6-(3-cyano-1-cyclobutyl-4,6-difluoro-5-methyl-1H-indol-2-yl)-N-[(2S)-1,1,1-trifluoropropan-2-yl]pyridine-3-sulfonamide]	< 500	181 to 186

From patent US8735414B2 (priority 2009, dated 2014)
